# Experimental data reported in patent US20250270213A1, “PI3Ka INHIBITORS” (Synnovation Therapeutics, Inc., priority 2022, published 2025).
# System: T47D (PIK3CA H1047R) cells
# Assay: pS473 AKT assay with 2.5% FBS, T47D cells
# Format: cell-based
# Conditions: Homo sapiens, pSer473 AKT, DMEM with 2.5% FBS, 2 h treatment, read-out: T47D_IC50
# Summary of the method: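 T47D (PIK3CA H1047R) cells were switched to DMEM with 2.5% FBS and exposed to compounds for 2 h. After paraformaldehyde fixation, pSer473 AKT was detected by in-cell ELISA (rabbit primary, HRP anti-rabbit secondary, chemiluminescence); IC50 values were fitted from the concentration series.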
row,Compound,IC50 [nM]
1,"Cc1cc(C(C)Nc2ccc(Cl)nc2-c2cnn(C)c2)c2c(c1)c(=O)n(C)c1c(C3CCN(C)CC3)ncn21 (centres unmarked) [Compound 134, 9-(1-((6-Chloro-2-(1-methyl-1H-pyrazol-4-yl)pyridin-3-yl)amino)ethyl)-4,7-dimethyl-3-(1-methylpiperidin-4-yl) imidazo[1,5-a]quinazolin-5(4H)-one]",< 1000
2,"Cc1cc(C(C)Nc2ccc(Cl)nc2-c2cnn(C)c2)c2c(c1)c(=O)n(C)c1c2cnn1C1CCN(C)C1 (centres unmarked) [Compound 135, 9-(1-((6-Chloro-2-(1-methyl-1H-pyrazol-4-yl)pyridin-3-yl)amino)ethyl)-4,7-dimethyl-3-(1-methylpyrrolidin-3-yl)-3,4-dihydro-5H-pyrazolo[3,4-c]isoquinolin-5-one]",< 1000
3,"Cc1cc(C(C)Nc2ccc(Cl)nc2-c2ncn(C)n2)c2c(c1)c(=O)n(C)c1c2cnn1C1CCN(C)C1 (centres unmarked) [Compound 136, 9-(1-((6-chloro-2-(1-methyl-1H-1,2,4-triazol-3-yl)pyridin-3-yl)amino)ethyl)-4,7-dimethyl-3-(1-methylpyrrolidin-3-yl)-3,4-dihydro-5H-pyrazolo[3,4-c]isoquinolin-5-one]",< 1000
4,"CCN1CCC(n2ncc3c4c(C(C)Nc5ccc(Cl)nc5-c5ncn(C)n5)cc(C)cc4c(=O)n(C)c32)C1 (centres unmarked) [Compound 137, 9-(1-((6-chloro-2-(1-methyl-1H-1,2,4-triazol-3-yl)pyridin-3-yl)amino)ethyl)-3-(1-ethylpyrrolidin-3-yl)-4,7-dimethyl-3,4-dihydro-5H-pyrazolo[3,4-c]isoquinolin-5-one]",< 1000
5,"Cc1cc(C(C)Nc2ccc(Cl)nc2-c2ncn(C)n2)c2c(c1)c(=O)n(C)c1c2cnn1C1CCN(CCO)C1 (centres unmarked) [Compound 138, 9-(1-((6-chloro-2-(1-methyl-1H-1,2,4-triazol-3-yl)pyridin-3-yl)amino)ethyl)-3-(1-(2-hydroxyethyl)pyrrolidin-3-yl)-4,7-dimethyl-3,4-dihydro-5H-pyrazolo[3,4-c]isoquinolin-5-one]",< 1000
6,"[2H]C([2H])([2H])n1c(=O)c2cc(C)cc(C(C)Nc3ccc(Cl)nc3-c3nnn(C)n3)c2c2cnn(C3CCN(C)C3)c21 (centres unmarked) [Compound 139, 9-(1-((6-chloro-2-(2-methyl-2H-tetrazol-5-yl)pyridin-3-yl)amino)ethyl)-7-methyl-4-(methyl-d3)-3-(1-methylpyrrolidin-3-yl)-3,4-dihydro-5H-pyrazolo[3,4-c]isoquinolin-5-one]",< 1000
7,"[2H]C([2H])([2H])n1c(=O)c2cc(C)cc(C(C)Nc3ccc(Cl)nc3-c3cnn(C)c3)c2c2cnn(C3CCN(CCO)C3)c21 (centres unmarked) [Compound 140, 9-(1-((6-chloro-2-(1-methyl-1H-pyrazol-4-yl)pyridin-3-yl)amino)ethyl)-3-(1-(2-hydroxyethyl)pyrrolidin-3-yl)-7-methyl-4-(methyl-d3)-3,4-dihydro-5H-pyrazolo[3,4-c]isoquinolin-5-one]",< 1000
8,"Cc1cc(C(C)Nc2ccc(Cl)nc2-c2ccncc2F)c2c(c1)c(=O)n(C)c1c2cnn1C1CCN(C(C)C)C1 (centres unmarked) [Compound 141, 9-(1-((6-chloro-3′-fluoro-[2,4′-bipyridin]-3-yl)amino)ethyl)-3-(1-isopropylpyrrolidin-3-yl)-4,7-dimethyl-3,4-dihydro-5H-pyrazolo[3,4-c]isoquinolin-5-one]",< 1000
9,"Cc1cc(C(C)Nc2ccc(Cl)nc2-c2cnn(C)c2)c2c(c1)c(=O)n(C)c1c2cnn1C1CCN(CC(F)F)C1 (centres unmarked) [Compound 142, 9-(1-((6-Chloro-2-(1-methyl-1H-pyrazol-4-yl)pyridin-3-yl)amino)ethyl)-3-(1-(2,2-difluoroethyl)pyrrolidin-3-yl)-4,7-dimethyl-3,4-dihydro-5H-pyrazolo[3,4-c]isoquinolin-5-one]",< 1000
10,"[2H]C([2H])([2H])n1c(=O)c2cc(C)cc(C(C)Nc3ccc(Cl)nc3-c3cnn(C)c3)c2c2cnn(C3CCN(CC(F)F)C3)c21 (centres unmarked) [Compound 143, 9-(1-((6-chloro-2-(1-methyl-1H-pyrazol-4-yl)pyridin-3-yl)amino)ethyl)-3-(1-(2,2-difluoroethyl)pyrrolidin-3-yl)-7-methyl-4-(methyl-d3)-3,4-dihydro-5H-pyrazolo[3,4-c]isoquinolin-5-one]",< 1000
11,"[2H]C([2H])([2H])n1c(=O)c2cc(C)cc(C(C)Nc3ccc(Cl)nc3-c3cnn(C)c3)c2c2cnn(C3CCN(CC#N)C3)c21 (centres unmarked) [Compound 144, 2-(3-(9-(1-((6-chloro-2-(1-methyl-1H-pyrazol-4-yl)pyridin-3-yl)amino)ethyl)-7-methyl-4-(methyl-d3)-5-oxo-4,5-dihydro-3H-pyrazolo[3,4-c]isoquinolin-3-yl)pyrrolidin-1-yl)acetonitrile]",< 1000
12,"CCn1c(=O)c2cc(C)cc(C(C)Nc3ccc(Cl)nc3-c3ncn(C)n3)c2c2cnn(C3CCN(CCO)C3)c21 (centres unmarked) [Compound 145, 9-(1-((6-Chloro-2-(1-methyl-1H-1,2,4-triazol-3-yl)pyridin-3-yl)amino)ethyl)-4-ethyl-3-(1-(2-hydroxyethyl)pyrrolidin-3-yl)-7-methyl-3,4-dihydro-5H-pyrazolo[3,4-c]isoquinolin-5-one]",< 1000
13,"CCn1c(=O)c2cc(C)cc(C(C)Nc3ccc(Cl)nc3-c3ncn(C)n3)c2c2cnn(C3CCN(CC(C)(C)O)C3)c21 (centres unmarked) [Compound 146, 9-(1-((6-chloro-2-(1-methyl-1H-1,2,4-triazol-3-yl)pyridin-3-yl)amino)ethyl)-4-ethyl-3-(1-(2-hydroxy-2-methylpropyl)pyrrolidin-3-yl)-7-methyl-3,4-dihydro-5H-pyrazolo[3,4-c]isoquinolin-5-one]",< 1000
14,"CCn1c(=O)c2cc(C)cc(C(C)Nc3ccc(Cl)nc3-c3ncn(C)n3)c2c2cnn(C3CCN(C(C)C)C3)c21 (centres unmarked) [Compound 147, 9-(1-((6-chloro-2-(1-methyl-1H-1,2,4-triazol-3-yl)pyridin-3-yl)amino)ethyl)-4-ethyl-3-(1-isopropylpyrrolidin-3-yl)-7-methyl-3,4-dihydro-5H-pyrazolo[3,4-c]isoquinolin-5-one]",< 1000
15,"CCn1c(=O)c2cc(C)cc(C(C)Nc3ccc(Cl)nc3-c3ncn(C)n3)c2c2cnn(C3CCN(S(C)(=O)=O)C3)c21 (centres unmarked) [Compound 148, 9-(1-((6-Chloro-2-(1-methyl-1H-1,2,4-triazol-3-yl)pyridin-3-yl)amino)ethyl)-4-ethyl-7-methyl-3-(1-(methylsulfonyl)pyrrolidin-3-yl)-3,4-dihydro-5H-pyrazolo[3,4-c]isoquinolin-5-one]",< 1000
16,"CCn1c(=O)c2cc(C)cc(C(C)Nc3ccc(Cl)nc3-c3ncn(C)n3)c2c2cnn(C3CCN(C(C)=O)C3)c21 (centres unmarked) [Compound 149, 3-(1-acetylpyrrolidin-3-yl)-9-(1-((6-chloro-2-(1-methyl-1H-1,2,4-triazol-3-yl)pyridin-3-yl)amino)ethyl)-4-ethyl-7-methyl-3,4-dihydro-5H-pyrazolo[3,4-c]isoquinolin-5-one]",< 1000
17,"CCn1c(=O)c2cc(C)cc(C(C)Nc3ccc(Cl)nc3-c3ncn(C)n3)c2c2cnn(C3CCN(C(=O)OC)C3)c21 (centres unmarked) [Compound 150, methyl 3-(9-(1-((6-chloro-2-(1-methyl-1H-1,2,4-triazol-3-yl)pyridin-3-yl)amino)ethyl)-4-ethyl-7-methyl-5-oxo-4,5-dihydro-3H-pyrazolo[3,4-c]isoquinolin-3-yl)pyrrolidine-1-carboxylate]",< 1000
